Experimental data published in PubChem BioAssay AID1963971 (Molecular Pharmacology Branch, DTP, NCI, 2024).
Values joined by “and” are separate entries in the source; they are usually repeats but may differ in a detail not shown here. Identical values can stand only once.

Tested on: 953936-095-R-J2-PDC spheroids with HUVEC/MSC, viability
Experiment: Anticancer human tumor 953936-095-R-J2-PDC patient-derived cervical squamous cell carcinoma cell line growth inhibition [PI3K]
Conditions: for viability, T/C: stronger effect = lower value
Summary of the method: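 Targeted small molecules plus PI3K inhibitors, half-log dose series from Cmax (default top 10 microM), were applied to heterotypic spheroids of cancer cells with HUVEC and MSCs. Viability indicated growth inhibition.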

[1] = curve of first compound, second compound 0.0316 µM
[2] = curve of first compound, second compound 0.1 µM
[3] = curve of first compound, second compound 0.316 µM
[4] = curve of first compound, second compound 1 µM
[5] = second compound 0.0316 µM, first compound 0.0316 µM
[6] = second compound 0.0316 µM, first compound 0.1 µM
[7] = second compound 0.0316 µM, first compound 0.316 µM
[8] = second compound 0.0316 µM, first compound 1 µM
[9] = second compound 0.0316 µM, first compound 3.16 µM
[10] = second compound 0.0316 µM, first compound 10 µM
[11] = second compound 0.1 µM, first compound 0.0316 µM
[12] = second compound 0.1 µM, first compound 0.1 µM
[13] = second compound 0.1 µM, first compound 0.316 µM
[14] = second compound 0.1 µM, first compound 1 µM
[15] = second compound 0.1 µM, first compound 3.16 µM
[16] = second compound 0.1 µM, first compound 10 µM
[17] = second compound 0.316 µM, first compound 0.0316 µM
[18] = second compound 0.316 µM, first compound 0.1 µM
[19] = second compound 0.316 µM, first compound 0.316 µM
[20] = second compound 0.316 µM, first compound 1 µM
[21] = second compound 0.316 µM, first compound 3.16 µM
[22] = second compound 0.316 µM, first compound 10 µM
[23] = second compound 1 µM, first compound 0.0316 µM
[24] = second compound 1 µM, first compound 0.1 µM
[25] = second compound 1 µM, first compound 0.316 µM
[26] = second compound 1 µM, first compound 1 µM
[27] = second compound 1 µM, first compound 3.16 µM
[28] = second compound 1 µM, first compound 10 µM
[29] = curve of first compound, second compound 0.00316 µM
[30] = curve of first compound, second compound 0.01 µM
[31] = second compound 0.00316 µM, first compound 0.0316 µM
[32] = second compound 0.00316 µM, first compound 0.1 µM
[33] = second compound 0.00316 µM, first compound 0.316 µM
[34] = second compound 0.00316 µM, first compound 1 µM
[35] = second compound 0.00316 µM, first compound 3.16 µM
[36] = second compound 0.00316 µM, first compound 10 µM
[37] = second compound 0.01 µM, first compound 0.0316 µM
[38] = second compound 0.01 µM, first compound 0.1 µM
[39] = second compound 0.01 µM, first compound 0.316 µM
[40] = second compound 0.01 µM, first compound 1 µM
[41] = second compound 0.01 µM, first compound 3.16 µM
[42] = second compound 0.01 µM, first compound 10 µM
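Also: spheroids exposed to compounds for seven days before read-out.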

Compound: CC(C)NCC(C(=O)N1CCN(c2ncnc3c2C(C)CC3O)CC1)c1ccc(Cl)cc1 (centres undefined) + Cc1nc(NC(=O)N2CCCC2C(N)=O)sc1-c1ccnc(C(C)(C)C(F)(F)F)c1
- IC50 [1]: 0.825 µM
- IC50 [2]: 0.709 µM
- IC50 [3]: 0.463 µM
- IC50 [4]: < 0.0316 µM
- IC50 (curve of first compound, second compound 3.16 µM): < 0.0316 µM
- IC50 (curve of first compound, second compound 10 µM): < 0.0316 µM
- viability, T/C [5]: 88.8%
- viability, T/C [6]: 89.2%
- viability, T/C [7]: 75.7%
- viability, T/C [8]: 44.1%
- viability, T/C [9]: 23.3%
- viability, T/C [10]: 14.3%
- viability, T/C [11]: 82.6%
- viability, T/C [12]: 76.7%
- viability, T/C [13]: 67.2%
- viability, T/C [14]: 42.4%
- viability, T/C [15]: 22.4%
- viability, T/C [16]: 12.2%
- viability, T/C [17]: 64.6%
- viability, T/C [18]: 62.4%
- viability, T/C [19]: 55.6%
- viability, T/C [20]: 38.2%
- viability, T/C [21]: 17.4%
- viability, T/C [22]: 11.6%
- viability, T/C [23]: 48.7%
- viability, T/C [24]: 42.2%
- viability, T/C [25]: 39.3%
- viability, T/C [26]: 28.3%
- viability, T/C [27]: 16.2%
- viability, T/C [28]: 7.67%
- viability, T/C (second compound 3.16 µM, first compound 0.0316 µM): 27.6%
- viability, T/C (second compound 3.16 µM, first compound 0.1 µM): 25.6%
- viability, T/C (second compound 3.16 µM, first compound 0.316 µM): 24.5%
- viability, T/C (second compound 3.16 µM, first compound 1 µM): 18%
- viability, T/C (second compound 3.16 µM, first compound 3.16 µM): 11.3%
- viability, T/C (second compound 3.16 µM, first compound 10 µM): 5.35%
- viability, T/C (second compound 10 µM, first compound 0.0316 µM): 11.6%
- viability, T/C (second compound 10 µM, first compound 0.1 µM): 11.2%
- viability, T/C (second compound 10 µM, first compound 0.316 µM): 10.9%
- viability, T/C (second compound 10 µM, first compound 1 µM): 8.17%
- viability, T/C (second compound 10 µM, first compound 3.16 µM): 5.5%
- viability, T/C (second compound 10 µM, first compound 10 µM): 2.61%

Compound: CC(C)NCC(C(=O)N1CCN(c2ncnc3c2C(C)CC3O)CC1)c1ccc(Cl)cc1 (centres undefined) + CC(Nc1ccc2c(c1)OCCn1cc(N3C(=O)OCC3C(F)F)nc1-2)C(N)=O
- IC50 [29]: 0.89 µM
- IC50 [30]: 0.865 µM
- IC50 [1]: 0.64 µM
- IC50 [2]: 0.176 µM
- IC50 [3]: < 0.0316 µM
- IC50 [4]: < 0.0316 µM
- viability, T/C [31]: 89.5%
- viability, T/C [32]: 88.2%
- viability, T/C [33]: 73.9%
- viability, T/C [34]: 48%
- viability, T/C [35]: 22.5%
- viability, T/C [36]: 15.1%
- viability, T/C [37]: 87%
- viability, T/C [38]: 86.1%
- viability, T/C [39]: 71.3%
- viability, T/C [40]: 48.3%
- viability, T/C [41]: 20.9%
- viability, T/C [42]: 14.1%
- viability, T/C [5]: 79.1%
- viability, T/C [6]: 76%
- viability, T/C [7]: 63.5%
- viability, T/C [8]: 42%
- viability, T/C [9]: 18.4%
- viability, T/C [10]: 11.4%
- viability, T/C [11]: 57.2%
- viability, T/C [12]: 55%
- viability, T/C [13]: 45.5%
- viability, T/C [14]: 31.2%
- viability, T/C [15]: 18.6%
- viability, T/C [16]: 9.8%
- viability, T/C [17]: 35.8%
- viability, T/C [18]: 33.9%
- viability, T/C [19]: 30.6%
- viability, T/C [20]: 23.6%
- viability, T/C [21]: 13%
- viability, T/C [22]: 9.25%
- viability, T/C [23]: 23%
- viability, T/C [24]: 22.3%
- viability, T/C [25]: 19.3%
- viability, T/C [26]: 15.4%
- viability, T/C [27]: 14%
- viability, T/C [28]: 7.62%

Compound: Cn1ncc(Cl)c1-c1cc(C(=O)NC(CN)Cc2cccc(F)c2)sc1Cl (centres undefined) + CC(Nc1ccc2c(c1)OCCn1cc(N3C(=O)OCC3C(F)F)nc1-2)C(N)=O
- IC50 [29]: 0.618 µM
- IC50 [30]: 0.499 µM
- IC50 [1]: 0.323 µM
- IC50 [2]: 0.181 µM
- IC50 [3]: < 0.0316 µM
- IC50 [4]: < 0.0316 µM
- viability, T/C [31]: 83.3%
- viability, T/C [32]: 84.3%
- viability, T/C [33]: 62.6%
- viability, T/C [34]: 40.2%
- viability, T/C [35]: 19.1%
- viability, T/C [36]: 11%
- viability, T/C [37]: 90.4%
- viability, T/C [38]: 87.3%
- viability, T/C [39]: 58.1%
- viability, T/C [40]: 35.1%
- viability, T/C [41]: 17.7%
- viability, T/C [42]: 12.6%
- viability, T/C [5]: 78.3%
- viability, T/C [6]: 71.3%
- viability, T/C [7]: 49.7%
- viability, T/C [8]: 27.6%
- viability, T/C [9]: 15.5%
- viability, T/C [10]: 9.96%
- viability, T/C [11]: 66.6%
- viability, T/C [12]: 61.7%
- viability, T/C [13]: 38.8%
- viability, T/C [14]: 25.7%
- viability, T/C [15]: 13.6%
- viability, T/C [16]: 10.5%
- viability, T/C [17]: 36.1%
- viability, T/C [18]: 37.1%
- viability, T/C [19]: 28%
- viability, T/C [20]: 17.1%
- viability, T/C [21]: 12.9%
- viability, T/C [22]: 7.57%
- viability, T/C [23]: 22.1%
- viability, T/C [24]: 22.5%
- viability, T/C [25]: 18.8%
- viability, T/C [26]: 13.8%
- viability, T/C [27]: 10.4%
- viability, T/C [28]: 5.59%

Compound: C#Cc1c(F)ccc2cc(O)cc(-c3ncc4c(N5CC6CCC(C5)N6)nc(OCC56CCCN5CC(F)C6)nc4c3F)c12 (centres undefined) + COc1c(OCCCN2CCOCC2)ccc2c3n(c(=NC(=O)c4cnc(N)nc4)nc12)CCN3
- IC50 [29]: > 10 µM
- IC50 [30]: 3.92 µM
- IC50 [1]: < 0.0316 µM
- IC50 [2]: < 0.0316 µM
- IC50 [3]: < 0.0316 µM
- IC50 [4]: < 0.0316 µM
- viability, T/C [31]: 81.9%
- viability, T/C [32]: 87.8%
- viability, T/C [33]: 86.6%
- viability, T/C [34]: 92.2%
- viability, T/C [35]: 72%
- viability, T/C [36]: 58.9%
- viability, T/C [37]: 75.5%
- viability, T/C [38]: 74.1%
- viability, T/C [39]: 69.1%
- viability, T/C [40]: 58.4%
- viability, T/C [41]: 54.3%
- viability, T/C [42]: 40%
- viability, T/C [5]: 40.1%
- viability, T/C [6]: 39.5%
- viability, T/C [7]: 38.7%
- viability, T/C [8]: 33.8%
- viability, T/C [9]: 25.7%
- viability, T/C [10]: 19.6%
- viability, T/C [11]: 18.3%
- viability, T/C [12]: 18.8%
- viability, T/C [13]: 14.1%
- viability, T/C [14]: 10.9%
- viability, T/C [15]: 8.08%
- viability, T/C [16]: 6.07%
- viability, T/C [17]: 5.75%
- viability, T/C [18]: 4.83%
- viability, T/C [19]: 4.36%
- viability, T/C [20]: 3.39%
- viability, T/C [21]: 2.56%
- viability, T/C [22]: 1.89%
- viability, T/C [23]: 1.56%
- viability, T/C [24]: 1.33%
- viability, T/C [25]: 0.98%
- viability, T/C [26]: 1.02%
- viability, T/C [27]: 0.79%
- viability, T/C [28]: 0.41%

Compound: CC(Cn1ccc(-c2ccc(C#N)c(Cl)c2)n1)NC(=O)c1cc(C(C)O)[nH]n1 (centres undefined)
- viability, T/C (compound 0.0316 µM): 91.2% [middle of 4 runs]
- viability, T/C (compound 0.1 µM): 96.5% [middle of 4 runs]
- viability, T/C (compound 0.316 µM): 97.1% [middle of 4 runs]
- viability, T/C (compound 1 µM): 108% and 101% (2×) and 96.8%
- viability, T/C (compound 10 µM): 99.4% (2×) and 105% and 106%
- IC50 (curve of compound): > 10 µM
